Laboratory results from US10995068B2, “Synthetic sphingolipid-like molecules, drugs, methods of their synthesis and methods of treatment” (The Regents of the University of California, priority 2015, dated 2021).

Columns and labels:
[1] = tested on: fusion of LC3-positive autophagosomes with LAMP1-positive lysosomes; assay: Autophagosome-lysosome fusion in chloroquine-treated cells; assay type: cell-based
Description: It is known in the art that cells adapt to nutrient stress by increasing autophagic flux. However, autophagosome-lysosome fusion reactions depend upon […] release via TRPML1 channels that are activated by PI(3,5)P2. […] Chloroquine (CQ) is molecule that stabilizes the transient autophagosomes. Cells were treated with CG to stabilize autophagolysosomes and subsequently treated with FTY720, SH-BC-893, or YM201636. […] Phosphatidylinositol 5-Phosphate (PI(5)P) is essential for autophagosome biogenesis upon glucose depletion. PI(5)P is produced by dephosphorylating PI(3,5)P2, and thus PI(5)P might also be mis-localized in SH-BC-893-treated cells, and thus also contributing to the disruption of autophagosome formation. […] Thus, SH-BC-893 inhibited both autophagosome formation and degradation. As a control, Vac14 over-expression limited vacuolation (FIGS. 55F, 61F, and 62B) and rescued autophagic flux in SH-BC-893-treated cells (FIGS. 61A, 61B, 61D and 61E).
Light Microscopy: Brightfield and epifluorescence microscopy were conducted using a Nikon TE2000-S fluorescence microscope; confocal microscopy was performed on a Zeiss LSM780 confocal microscope or Nikon Eclipse Ti spinning disk confocal microscope. […] Co-localization was determined using JACoP plugin in ImageJ software. Macropinocytosis was measured after 16 h incubation in serum-free DMEM. p53−/−; LSL-K-RasG12D MEFs before (LSL) or after (KRasG12D) introduction of Cre were serum starved for 16 h and then treated with macropinocytosis inhibitor 5-(N-ethyl-N-isopropyl) amiloride (EIPA, 75 μM) for 1 h or SH-BC-893 for 6 h. Oregon Green dextran (Life Technologies, cat #D7173) (1 mg/mL) and Lysotracker Red (Life Technologies, cat #L-7525) (1:2,000 dilution) were added for 30 min and live cells were evaluated on the spinning disc confocal microscope. […]

[2] = tested on: murine hematopoietic cell line FL5.12; assay: Viability of FL5.12 cells by vital dye exclusion; assay type: cell-based; conditions: Mus musculus; FL5.12 cells, 48 h, vital dye exclusion; n ≥3; read-out: IC50 (μM) [95% CI]
Description: Cell culture studies: FL5.12 cells (murine hematopoetic cells originally obtained from Craig Thompson, Memorial Sloan Kettering Cancer Center) were maintained at 0.1-0.5 million/ml in RPMI 1640 (Mediatech) supplemented with 10% fetal calf serum (FCS, Sigma-Aldrich), 10 mM Hepes (Mediatech), 500 pg/ml recombinant IL-3 (cat #575502, Biolegend), 55 μM β-mercaptoethanol (Sigma-Aldrich), 2 mM L-glutamine (Mediatech), and antibiotics. Cells were screened for Mycoplasma every 3 months using the Look-Out Mycoplasma PCR Detection kit (cat #MP0035, Sigma).
IC50 values were calculated using GraphPad Prism (GraphPad Software, Inc, La Jolla, Calif.).

[3] = Heart rate by ECG telemetry in mice; assay type: in vivo, C57BL/6 mice; conditions: for heart rate in telemetry tracing: after injection, saline approximately 600 BPM
Description: In more exemplary embodiments, compounds 5 and 5-P were further examined for their ability to activate multiple S1P receptors in vivo. In particular, mouse heart rate and lymphocyte sequestration were examined. Mouse heart rate decreases causing bradycardia when S1P receptor 3 is activated while in humans this effect may be mediated by S1P receptor 1. In both mice and humans, lymphocytes are sequestered when the S1P receptor 1 is activated.
As shown in the telemetry readings detailed in FIG. 36, FTY720 (B) slowed heart rate comparison to compound 5 (C) and the control (A, saline). As shown in A, after administering saline, normal sinus rhythm with clearly discernible P waves, representing atrial depolarization, and QRS complexes, representing ventricular depolarization, at regular intervals is observed. The heart rate in this tracing was approximately 600 beats per minute (BPM). […] Finally, as shown in C, for exemplary embodiment compound 5, similar to the saline injection, normal sinus rhythm with well-defined and consistent P waves and QRS complexes were present following injection. The heart rate in this tracing was approximately 600 BPM, similar to saline.
Heart rate: C57BL/6 mice are surgically implanted with DSI TA-ETAF20 electrocardiographic telemetry devices (Data Sciences International, St. Paul, Minn.). The electrocardiographic data is collected and recorded using the PhysioTel telemetry system and Dataquest A.R.T 4.0 software (DSI). The telemetry device is implanted in the mouse's abdominal cavity with biopotential leads sutured in place in the chest wall. Buprenorphine (0.05 mg/kg) is administered every 12 h after surgery for pain management and enrofloxacin (3 mg/kg) is administered 2× per day for 7 days post-surgery as an antibiotic. Mice are permitted two weeks recovery after surgery before initiation of baseline telemetry recordings. Heart rate is calculated from ECG data taken in the freely moving, conscious mice. Mice are divided into two groups of 3 mice and treated intraperitoneally with a single dose of vehicle (0.9% saline or 20% acidified DMSO in 0.9% saline), 10 mg/kg FTY720, FTY720-Phosphate, 5, or 5-P and heart rate monitored continuously for 10 h. Mice are rested for two weeks at which point the experiment is repeated with the mice assigned to the alternate group. These experiments are performed in accordance with all national or local guidelines and regulations and were approved by the UCI Institutional Animal Care and Use Committee.

CCCCCCCCc1ccc(CCC(N)(CO)CO)cc1.Cl [FTY720, 2-Amino-2-[2-(4-octylphenyl)ethyl]propane 1,3-diol hydrochloride, reference compound]
fusion of LC3-positive autophagosomes with LAMP1-positive lysosomes [1]: reduced fusion | IC50 [2]: 2.4 µM | heart rate in telemetry tracing [3]: approximately 200 BPM | decrease of heart rate ([3]; single dose 10 mg/kg intraperitoneally, compared to saline vehicle): approximately 50%

CCCCCCCCc1ccc([C@H]2CCN[C@@H]2CO)cc1.Cl [Compound 5, (2S,3R)-2-(hydroxymethyl)-3-(4-octylphenyl)Pyrrolidinium chloride]
fusion of LC3-positive autophagosomes with LAMP1-positive lysosomes [1]: reduced fusion | IC50 [2]: 1.9 µM | heart rate in telemetry tracing [3]: approximately 600 BPM | effect on heart rate ([3]; single dose 10 mg/kg intraperitoneally, compared to saline controls): no significant effect
